Experiment: Stability test of Crystalline Form F of Nintedanib (XRPD after storage)
Type: physicochemical
Conditions: polyethylene bag in desiccator, no humidity control, room temperature, three months; FIG. 15 before, FIG. 23 after
Description: In each example, XRPD experiment was conducted using a Bruker D8 advance diffractometer, with a Cu Ka (wavelength 1.54056 Å) filled tube (40 kV, 40 mA) as the X-ray source having a wide angle goniometer, a 0.6 mm divergent slit, a 2.5° primary Sola slit, a 2.5° secondary Sola slit, an 8 mm anti-scattering slit, a 0.1 mm detector slit, and Lynx Eye detector, at room temperature. In a 2θ continuous scanning mode, the data acquisition was completed with a scanning speed of 2.4°/min and a scanning step of 0.02° in the range of 3° to 40°.
Crystalline Form F of Nintedanib obtained with the preparation method in Example 5 was placed in a polyethylene plastic bag, the plastic bag was then placed in a desiccator with no humidity control at room temperature for three months (from April 12 to July 12).

Compound: COC(=O)c1ccc2c(c1)NC(=O)/C2=C(\Nc1ccc(N(C)C(=O)CN2CCN(C)CC2)cc1)c1ccccc1 [Crystalline Form F, 3-Z-[1-(4-(N-((4-methyl-piperazin-1-yl)-methylcarbonyl)-N-methyl-amino)-phenylamino)-1-phenyl-methylene]-6-methoxycarbonyl-2-indolinone]
- crystalline form by XRPD after storage (stability of Crystalline Form F): all the measurements showed a result of Crystalline Form F

Reference: patent US10961203B2, “Crystalline forms of 3-Z-[1-(4-(N-((4-methyl-piperazin-1-yl)-methylcarbonyl)-N-methyl-amino)-phenylamino)-1-phenyl-methylene]-6-methoxycarbonyl-2-indolinone” (Allgenesis Biotherapeutics Inc., priority 2017, dated 2021)
